Assays:
[1] = target: GDP-bound HRAS wild-type protein (Homo sapiens, UniProt P01112); test: Binding to HRAS by surface plasmon resonance (SPR), Single Cycle Kinetics; conditions: KD ratio, GDP-bound HRAS wild-type vs GDP-bound KRAS wild-type, SPR
[2] = target: GDP-bound NRAS wild-type protein (Homo sapiens, UniProt P01111); test: Binding to NRAS by surface plasmon resonance (SPR), Single Cycle Kinetics; conditions: KD ratio, GDP-bound NRAS wild-type vs GDP-bound KRAS wild-type, SPR
Chain of GDP-bound NRAS wild-type protein (P01111 whole entry): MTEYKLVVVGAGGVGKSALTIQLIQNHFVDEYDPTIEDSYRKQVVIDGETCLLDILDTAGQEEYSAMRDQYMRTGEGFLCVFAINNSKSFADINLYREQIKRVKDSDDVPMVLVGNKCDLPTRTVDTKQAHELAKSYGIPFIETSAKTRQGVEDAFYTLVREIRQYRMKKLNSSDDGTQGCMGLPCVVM

Chain of GDP-bound HRAS wild-type protein (P01112 whole entry): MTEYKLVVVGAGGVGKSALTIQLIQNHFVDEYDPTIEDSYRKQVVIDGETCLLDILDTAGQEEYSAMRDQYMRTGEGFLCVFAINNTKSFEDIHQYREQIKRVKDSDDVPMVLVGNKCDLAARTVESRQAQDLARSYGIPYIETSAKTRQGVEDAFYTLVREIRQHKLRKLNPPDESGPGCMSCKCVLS

SMILES	HRAS/KRAS (ratio of KD value with respect to HRAS to KD value with respect to KRAS) [1]	NRAS/KRAS (ratio of KD value with respect to NRAS to KD value with respect to KRAS) [2]
CC[C@H](C)[C@@H]1NC(=O)[C@H](COC)N(C)C(=O)C[C@@H](C(=O)N2CCOCC2)N(C)C(=O)[C@H](C2CCCC2)N(C)C(=O)C2(CCC2)NC(=O)[C@@H]2CCN2C(=O)[C@H](CCc2cc(F)c(C(F)(F)F)c(F)c2)NC(=O)CN(C)C(=O)[C@H](Cc2ccc(C(F)(F)F)cc2)N2CCCCC[C@@H](C2=O)N(C)C(=O)CN(C)C1=O [PP0840]	B (a compound having 3 or more and less than 10 is denoted as B)	B (a compound having 3 or more and less than 10 is denoted as B)
CCO[C@@H]1C[C@H]2C(=O)NC3(CCCC3)C(=O)N(C)[C@@H](C3CCCC3)C(=O)N(C)[C@H](C(=O)N3CCOCC3)CC(=O)N(C)[C@@H](COC)C(=O)N[C@@H]([C@@H](C)CC)C(=O)N(C)CC(=O)N(C)[C@H]3CCCCCN(C3=O)[C@@H](Cc3ccc(C(F)(F)F)cc3)C(=O)N(C)CC(=O)N[C@@H](CCc3cc(F)c(C(F)(F)F)c(F)c3)C(=O)N2C1 [PP0841]	B (a compound having 3 or more and less than 10 is denoted as B)	B (a compound having 3 or more and less than 10 is denoted as B)
CCO[C@@H]1C[C@H]2C(=O)NC3(CC=CC3)C(=O)N(C)[C@@H](C3CCCC3)C(=O)N(C)[C@H](C(=O)N3CCOCC3)CC(=O)N(C)[C@@H](COC)C(=O)N[C@@H]([C@@H](C)CC)C(=O)N(C)CC(=O)N(C)[C@H]3CCCCCN(C3=O)[C@@H](Cc3ccc(C(F)(F)F)cc3)C(=O)N(C)CC(=O)N[C@@H](CCc3cc(F)c(C(F)(F)F)c(F)c3)C(=O)N2C1 [PP0842]	B (a compound having 3 or more and less than 10 is denoted as B)	B (a compound having 3 or more and less than 10 is denoted as B)
CCO[C@@H]1C[C@H]2C(=O)NC3(CC(F)(F)C3)C(=O)N(C)[C@@H](C3CCCC3)C(=O)N(C)[C@H](C(=O)N3CCOCC3)CC(=O)N(C)[C@@H](COC)C(=O)N[C@@H]([C@@H](C)CC)C(=O)N(C)CC(=O)N(C)[C@H]3CCCCCN(C3=O)[C@@H](Cc3ccc(C(F)(F)F)cc3)C(=O)N(C)CC(=O)N[C@@H](CCc3cc(F)c(C(F)(F)F)c(F)c3)C(=O)N2C1 [PP0843]	B (a compound having 3 or more and less than 10 is denoted as B)	B (a compound having 3 or more and less than 10 is denoted as B)
CCO[C@@H]1C[C@H]2C(=O)NC3(CC(C)(C)C3)C(=O)N(C)[C@@H](C3CCCC3)C(=O)N(C)[C@H](C(=O)N3CCOCC3)CC(=O)N(C)[C@@H](COC)C(=O)N[C@@H]([C@@H](C)CC)C(=O)N(C)CC(=O)N(C)[C@H]3CCCCCN(C3=O)[C@@H](Cc3ccc(C(F)(F)F)cc3)C(=O)N(C)CC(=O)N[C@@H](CCc3cc(F)c(C(F)(F)F)c(F)c3)C(=O)N2C1 [PP0844]	B (a compound having 3 or more and less than 10 is denoted as B)	B (a compound having 3 or more and less than 10 is denoted as B)
CC[C@H](C)[C@@H]1NC(=O)[C@H](COC)N(C)C(=O)C[C@@H](C(=O)N2CCOCC2)N(C)C(=O)[C@H](C2CCCC2)N(C)C(=O)C2(CCCC2)NC(=O)[C@@H]2CCCN2C(=O)[C@H](CCc2cc(F)c(C(F)(F)F)c(F)c2)NC(=O)CN(C)C(=O)[C@H](Cc2ccc(C(F)(F)F)cc2)N2CCCCC[C@@H](C2=O)N(C)C(=O)CN(C)C1=O [PP0845]	B (a compound having 3 or more and less than 10 is denoted as B)	B (a compound having 3 or more and less than 10 is denoted as B)
CC[C@H](C)[C@@H]1NC(=O)[C@H](COC)N(C)C(=O)C[C@@H](C(=O)N2CCOCC2)N(C)C(=O)[C@H](C2CCCC2)N(C)C(=O)C2(CCCC2)NC(=O)[C@@H]2CC(F)(F)CN2C(=O)[C@H](CCc2cc(F)c(C(F)(F)F)c(F)c2)NC(=O)CN(C)C(=O)[C@H](Cc2ccc(C(F)(F)F)cc2)N2CCCCC[C@@H](C2=O)N(C)C(=O)CN(C)C1=O [PP0846]	B (a compound having 3 or more and less than 10 is denoted as B)	B (a compound having 3 or more and less than 10 is denoted as B)
CC[C@H](C)[C@@H]1NC(=O)[C@H](COC)N(C)C(=O)C[C@@H](C(=O)N2CCOCC2)N(C)C(=O)[C@H](C2CCCC2)N(C)C(=O)C2(CCCC2)NC(=O)[C@@H]2C[C@H](O)CN2C(=O)[C@H](CCc2cc(F)c(C(F)(F)F)c(F)c2)NC(=O)CN(C)C(=O)[C@H](Cc2ccc(C(F)(F)F)cc2)N2CCCCC[C@@H](C2=O)N(C)C(=O)CN(C)C1=O [PP0847]	B (a compound having 3 or more and less than 10 is denoted as B)	B (a compound having 3 or more and less than 10 is denoted as B)
CCO[C@@H]1C[C@H]2C(=O)NC3(CCC3)C(=O)N(C)[C@@H](C3CCCC3)C(=O)N(C)[C@H](C(=O)N3CCOCC3)CC(=O)N(C)[C@@H](COC)C(=O)N[C@@H]([C@@H](C)CC)C(=O)N(C)CC(=O)N(C)[C@H]3CCCCCN(C3=O)[C@@H](Cc3ccc(C(F)(F)F)cc3)C(=O)N(C)CC(=O)N[C@@H](CCc3ccc(C(F)(F)F)c(F)c3)C(=O)N2C1 [PP0848]	B (a compound having 3 or more and less than 10 is denoted as B)	B (a compound having 3 or more and less than 10 is denoted as B)
CCO[C@@H]1C[C@H]2C(=O)NC3(CCC3)C(=O)N(C)[C@@H](C3CCCC3)C(=O)N(C)[C@H](C(=O)N3CCOCC3)CC(=O)N(C)[C@@H](COC)C(=O)N[C@@H]([C@@H](C)CC)C(=O)N(C)CC(=O)N(C)[C@H]3CCCCCN(C3=O)[C@@H](Cc3ccc(C(F)(F)F)cc3)C(=O)N(C)CC(=O)N[C@@H](CCc3ccc(C(F)(F)F)c(Cl)c3)C(=O)N2C1 [PP0849]	B (a compound having 3 or more and less than 10 is denoted as B)	B (a compound having 3 or more and less than 10 is denoted as B)
CCO[C@@H]1C[C@H]2C(=O)NC3(CCC3)C(=O)N(C)[C@@H](C3CCCC3)C(=O)N(C)[C@H](C(=O)N3CCOCC3)CC(=O)N(C)[C@@H](COC)C(=O)N[C@@H]([C@@H](C)CC)C(=O)N(C)CC(=O)N(C)[C@H]3CCCCCN(C3=O)[C@@H](Cc3ccc(C(F)(F)F)cc3)C(=O)N(C)CC(=O)N[C@@H](CCc3ccc(C)cc3)C(=O)N2C1 [PP0850]	B (a compound having 3 or more and less than 10 is denoted as B)	B (a compound having 3 or more and less than 10 is denoted as B)
CCOC[C@H]1C(=O)N[C@@H]([C@@H](C)CC)C(=O)N(C)CC(=O)N(C)[C@H]2CCCCCN(C2=O)[C@@H](Cc2ccc(C(F)(F)F)cc2)C(=O)N(C)CC(=O)N[C@@H](CCc2cc(F)c(C(F)(F)F)c(F)c2)C(=O)N2C[C@H](OCC)C[C@H]2C(=O)NC2(CCC2)C(=O)N(C)[C@@H](C2CCCC2)C(=O)N(C)[C@H](C(=O)N2CCOCC2)CC(=O)N1C [PP0851]	B (a compound having 3 or more and less than 10 is denoted as B)	B (a compound having 3 or more and less than 10 is denoted as B)
CCO[C@@H]1C[C@H]2C(=O)NC3(CCC3)C(=O)N(C)[C@@H](C3CCCC3)C(=O)N(C)[C@H](C(=O)N3CCOCC3)CC(=O)N(C)[C@@H](COC3CC3)C(=O)N[C@@H]([C@@H](C)CC)C(=O)N(C)CC(=O)N(C)[C@H]3CCCCCN(C3=O)[C@@H](Cc3ccc(C(F)(F)F)cc3)C(=O)N(C)CC(=O)N[C@@H](CCc3cc(F)c(C(F)(F)F)c(F)c3)C(=O)N2C1 [PP0852]	B (a compound having 3 or more and less than 10 is denoted as B)	B (a compound having 3 or more and less than 10 is denoted as B)
CCO[C@@H]1C[C@H]2C(=O)NC3(CCC3)C(=O)N(C)[C@@H](C3CCCC3)C(=O)N(C)[C@H](C(=O)N3CCOCC3)CC(=O)N(C)[C@@H](COCC(F)(F)F)C(=O)N[C@@H]([C@@H](C)CC)C(=O)N(C)CC(=O)N(C)[C@H]3CCCCCN(C3=O)[C@@H](Cc3ccc(C(F)(F)F)cc3)C(=O)N(C)CC(=O)N[C@@H](CCc3cc(F)c(C(F)(F)F)c(F)c3)C(=O)N2C1 [PP0853]	B (a compound having 3 or more and less than 10 is denoted as B)	B (a compound having 3 or more and less than 10 is denoted as B)
CCO[C@@H]1C[C@H]2C(=O)NC3(CCC3)C(=O)N(C)[C@@H](C3CCCC3)C(=O)N(C)[C@H](C(=O)N3CCOCC3)CC(=O)N(C)[C@@H](CC(F)F)C(=O)N[C@@H]([C@@H](C)CC)C(=O)N(C)CC(=O)N(C)[C@H]3CCCCCN(C3=O)[C@@H](Cc3ccc(C(F)(F)F)cc3)C(=O)N(C)CC(=O)N[C@@H](CCc3cc(F)c(C(F)(F)F)c(F)c3)C(=O)N2C1 [PP0854]	B (a compound having 3 or more and less than 10 is denoted as B)	B (a compound having 3 or more and less than 10 is denoted as B)
CCO[C@@H]1C[C@H]2C(=O)NC3(CCC3)C(=O)N(C)[C@@H](C3CCCC3)C(=O)N(C)[C@H](C(=O)N3CCOCC3)CC(=O)N(C)[C@@H](Cc3cscn3)C(=O)N[C@@H]([C@@H](C)CC)C(=O)N(C)CC(=O)N(C)[C@H]3CCCCCN(C3=O)[C@@H](Cc3ccc(C(F)(F)F)cc3)C(=O)N(C)CC(=O)N[C@@H](CCc3cc(F)c(C(F)(F)F)c(F)c3)C(=O)N2C1 [PP0855]	B (a compound having 3 or more and less than 10 is denoted as B)	B (a compound having 3 or more and less than 10 is denoted as B)

From US20250230193A1, “CYCLIC COMPOUND HAVING SELECTIVE KRAS INHIBITORY EFFECT ON HRAS AND NRAS” (CHUGAI SEIYAKU KABUSHIKI KAISHA, priority 2022, published 2025)
